Article PMC8226474, “Design, Syntheses, and Bioevaluations of Some Novel N^2-Acryloylbenzohydrazides as Chemostimulants and Cytotoxic Agents” (Medicines, 2021)

Tests used:
RAJI cells = assay: Cytotoxicity (CC50), Raji cells; type: cell-based, human
Procedure: (§1) In brief, the compounds were incubated for 24 h with the neoplasms, using DMEM and RPMI media. Three independent experiments were carried out.

JURKAT cells = assay: Cytotoxicity (CC50), Jurkat cells; type: cell-based, human
Procedure: as §1

[1] = system: Ramos, NALM-60, CEM, HL-60, JURKAT, RAJI cells; assay: Cytotoxicity (CC50), average over six leukemia/lymphoma cell lines; type: cell-based, human
Procedure: as §1

[2] = Cytotoxicity (CC50), non-malignant MCF-10A breast cells; type: cell-based; conditions: human, MCF-10A cells (non-malignant breast cells); 24 h incubation; read-out: Non-Malignant Cells CC50, MCF10A
Procedure: as §1

MCF-7 cells = assay: Cytotoxicity assay, MCF-7 breast cancer cells; type: cell-based, human
Summary of the method: (§2)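 Cells were exposed to compounds for 48 h unless indicated otherwise. HCT 116 cells were grown in McCoy's 5A, CRL 1790 in MEM, and MCF-7 and MDA-MB-231 in DMEM, each with 10% FBS and 1% penicillin–streptomycin. Triplicate determinations were run on three occasions.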

[3] = Cytotoxicity (CC50), non-malignant Hs27 foreskin cells; type: cell-based; conditions: human, 24 h incubation
Procedure: as §1

HCT 116 cells = assay: Cytotoxicity assay, HCT 116 colon cancer cells; type: cell-based, human; conditions: Homo sapiens, HCT-116, 48 h, read-out: percentage inhibition of HCT 116 cells
Summary of the method: as §2

Ramos cells [4] = assay: Mitochondrial membrane potential of Ramos cells (JC-1 dye, flow cytometry); type: cell-based, human; conditions: 5 h, Figure 3
Procedure: The effect of 1l on the mitochondrial membrane potential of Ramos cells was determined using the procedure laid out in [9]. In brief, the cells were treated with 1l for 5 h, stained with the JC-1 dye, and then the results were analyzed by flow cytometry.
The MMP of Ramos cells was determined using the JC-1 dye. In this assay, JC-1 enters the energized mitochondria in healthy cells and forms aggregates to produce red fluorescence at 590 nm. However, cells undergoing apoptotic cell death have a low mitochondrial membrane potential.

HL-60 cells = assay: Cytotoxicity (CC50), HL-60 cells; type: cell-based, human
Procedure: as §1

NALM-60 cells = assay: Cytotoxicity (CC50), NALM-60 cells; type: cell-based, human
Procedure: as §1

MDA-MB-231 cells = assay: Cytotoxicity assay, MDA-MB-231 breast cancer cells; type: cell-based, human; conditions: Homo sapiens, MDA-MB-231, 48 h, read-out: percentage inhibition of MDA-MB-231 cells
Summary of the method: as §2

[5] = Cytotoxicity (CC50), average over non-malignant cells; type: cell-based; conditions: human, Hs27 and MCF10A cells (non-malignant), average of both
Procedure: as §1

CRL 1790 cells = assay: Cytotoxicity assay, non-malignant CRL 1790 colon cells; type: cell-based; conditions: Homo sapiens, 48 h, Table 2, read-out: Non-Malignant CRL 1790 Cells IC50
Summary of the method: as §2

CEM cells = assay: Cytotoxicity (CC50), CEM cells; type: cell-based, human
Procedure: as §1

Ramos cells [6] = assay: Cytotoxicity (CC50), Ramos cells; type: cell-based, human
Procedure: as §1

C=CC(=O)NNC(=O)c1ccc(OC)cc1 [1l, N^2-Acryloyl-4-methoxylbenzohydrazide]
CC50 (RAJI cells; Homo sapiens, Raji, 24 h incubation): 2.93 ± 0.43 µM | SI RAJI (RAJI cells; average CC50 of non-malignant cells / CC50 RAJI): 6.11 | CC50 (JURKAT cells; Homo sapiens, Jurkat, 24 h incubation): 2.17 ± 0.45 µM | SI JURKAT (JURKAT cells; average CC50 of non-malignant cells / CC50 JURKAT): 8.25 | Avg SI, neoplastic cells [1]: 22.7 | CC50 ([1]; Homo sapiens, average over six neoplastic cell lines): 1.97 µM | CC50 at 24 h [2]: 18.1 ± 0.84 µM | inhibition at 10 µM (MCF-7 cells; Homo sapiens, MCF7, 10 µM, 48 h, read-out: percentage inhibition of MCF-7 cells): 60.6 ± 3.29% | inhibition at 100 µM (MCF-7 cells; Homo sapiens, MCF7, 100 µM, 48 h, read-out: percentage inhibition of MCF-7 cells): 99.4 ± 2.34% | IC50 (MCF-7 cells; Homo sapiens, MCF7, Table 2, 48 h, read-out: Neoplastic Cells IC50, MCF-7): 3.18 ± 0.53 µM | SI (selectivity index) (MCF-7 cells; IC50 CRL 1790 / IC50 MCF-7, Table 2): >31.5 | CC50 at 24 h [3]: 17.7 ± 0.62 µM | inhibition at 10 µM (HCT 116 cells; 10 µM): 8.62 ± 2.79% | inhibition at 100 µM (HCT 116 cells; 100 µM): 85.1 ± 3.28% | effect on mitochondrial membrane potential of Ramos cells (Ramos cells [4]; CC50 concentration of 1l, vs control): significantly depolarized | effect on mitochondrial membrane potential of Ramos cells (Ramos cells [4]; doubled (2 x CC50) concentration of 1l): approximately twofold increase in the mitochondrial depolarization | CC50 (HL-60 cells; Homo sapiens, HL-60, 24 h incubation): 1.86 ± 0.66 µM | SI HL-60 (HL-60 cells; average CC50 of non-malignant cells / CC50 HL-60): 9.62 | CC50 (NALM-60 cells; Homo sapiens, 24 h incubation): 3.25 ± 0.99 µM | SI NALM-60 (NALM-60 cells; average CC50 of non-malignant cells / CC50 NALM-60): 5.51 | inhibition at 10 µM (MDA-MB-231 cells; 10 µM): -4.95 ± 3.12% | inhibition at 100 µM (MDA-MB-231 cells; 100 µM): 47.7 ± 3.19% | CC50 at 24 h [5]: 17.9 µM | IC50 (CRL 1790 cells): > 100 µM | CC50 (CEM cells; Homo sapiens, CCRF-CEM, 24 h incubation): 1.42 ± 0.25 µM | SI CEM (CEM cells; average CC50 of non-malignant cells / CC50 CEM): 12.6 | CC50 (Ramos cells [6]; Homo sapiens, Ramos, 24 h incubation): 0.19 ± 0.01 µM | SI Ramos (Ramos cells [6]; average CC50 of non-malignant cells / CC50 Ramos): 94.2
